Data on two molecules can be found in paper PMC6325563 (eNeuro, 2019).

Common to all, as to assay: two-electrode voltage clamp, Xenopus oocytes
Holding throughout (type): cell-based
On the technique in general: Two-electrode voltage clamp holds a large cell at a set potential and records current.

The target of assay [1] is T1, (α4)3(β2)2 nAChR (low sensitivity) (Rattus norvegicus, UniProt P09483+P12390).
T1 construct: gene Chrna4; subunits in pGEMhe, mRNA alpha4:beta2 10:1 injected in Xenopus laevis oocytes; pentamer
T1 sequence (P09483 31-630): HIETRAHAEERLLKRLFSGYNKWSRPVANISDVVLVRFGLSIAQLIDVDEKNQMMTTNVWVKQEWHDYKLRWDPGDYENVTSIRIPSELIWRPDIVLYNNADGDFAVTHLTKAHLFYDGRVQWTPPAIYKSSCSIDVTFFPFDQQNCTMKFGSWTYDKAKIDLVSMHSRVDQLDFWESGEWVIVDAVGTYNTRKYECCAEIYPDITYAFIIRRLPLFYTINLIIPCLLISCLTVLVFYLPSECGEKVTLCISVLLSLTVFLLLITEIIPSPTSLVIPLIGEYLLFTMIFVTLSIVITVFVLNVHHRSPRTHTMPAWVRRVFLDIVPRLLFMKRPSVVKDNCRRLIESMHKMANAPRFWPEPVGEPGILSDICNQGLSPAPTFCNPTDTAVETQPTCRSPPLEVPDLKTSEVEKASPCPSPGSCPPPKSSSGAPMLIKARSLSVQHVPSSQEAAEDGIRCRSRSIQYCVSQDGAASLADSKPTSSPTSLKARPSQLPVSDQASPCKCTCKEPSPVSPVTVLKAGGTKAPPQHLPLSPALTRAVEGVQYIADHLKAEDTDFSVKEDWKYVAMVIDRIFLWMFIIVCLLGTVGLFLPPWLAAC
T1 sequence (P12390 25-500): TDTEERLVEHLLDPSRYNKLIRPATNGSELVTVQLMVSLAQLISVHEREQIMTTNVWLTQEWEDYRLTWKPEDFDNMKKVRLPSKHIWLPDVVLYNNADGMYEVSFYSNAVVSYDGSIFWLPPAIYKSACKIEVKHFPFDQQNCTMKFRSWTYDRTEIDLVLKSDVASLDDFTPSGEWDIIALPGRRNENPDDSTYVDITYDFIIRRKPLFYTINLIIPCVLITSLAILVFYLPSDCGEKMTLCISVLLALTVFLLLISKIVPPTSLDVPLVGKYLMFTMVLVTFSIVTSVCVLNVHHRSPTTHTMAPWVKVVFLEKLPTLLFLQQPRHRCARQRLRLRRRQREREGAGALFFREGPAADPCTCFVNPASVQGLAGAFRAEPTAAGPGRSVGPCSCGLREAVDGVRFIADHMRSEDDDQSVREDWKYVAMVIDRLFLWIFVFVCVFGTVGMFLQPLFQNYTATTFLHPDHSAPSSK
From the text: (§1) two-electrode voltage clamp, Xenopus oocytes on (α4)3(β2)2 nAChR (low sensitivity)

For assay [2], the target named is T2, (α4)2(β2)3 nAChR (high sensitivity) (Rattus norvegicus, UniProt P09483+P12390).
T2 construct: gene Chrna4; subunits in pGEMhe, mRNA alpha4:beta2 1:10 injected in Xenopus laevis oocytes; pentamer
T2 sequence (P09483 31-630): as the sequence (P09483 31-630) above
T2 sequence (P12390 25-500): as the sequence (P12390 25-500) above
An excerpt:
(§2) two-electrode voltage clamp, Xenopus oocytes on (α4)2(β2)3 nAChR (high sensitivity)

For assay [3], the target named is T3, (α4)3(β2)2 nAChR (low sensitivity) (Rattus norvegicus, UniProt P09483+P12390, P09483:L285M).
T3 construct: gene Chrna4; subunits in pGEMhe, mRNA alpha4:beta2 10:1 injected in Xenopus laevis oocytes; pentamer
T3 sequence (P09483 31-630 L285M): as the sequence (P09483 31-630) above, with L255M counted along it
T3 sequence (P12390 25-500): as the sequence (P12390 25-500) above
To be noted: read-out: IC50 (μM (-)-menthol) ± SEM.
Description: as §1

For assay [4], the target named is T4, (α4)3(β2)2 nAChR (low sensitivity) (Rattus norvegicus, UniProt P09483+P12390, P09483:S286L).
T4 construct: gene Chrna4; subunits in pGEMhe, mRNA alpha4:beta2 10:1 injected in Xenopus laevis oocytes; pentamer
T4 sequence (P09483 31-630 S286L): as the sequence (P09483 31-630) above, with S256L counted along it
T4 sequence (P12390 25-500): as the sequence (P12390 25-500) above
To be noted: read-out: IC50 (μM (-)-menthol) ± SEM.
Description: as §1

Assay [5] has as its target T5, (α4)3(β2)2 nAChR (low sensitivity) (Rattus norvegicus, UniProt P09483+P12390, P09483:L285I).
T5 construct: gene Chrna4; subunits in pGEMhe, mRNA alpha4:beta2 10:1 injected in Xenopus laevis oocytes; pentamer
To be noted: read-out: IC50 (μM (-)-menthol) ± SEM.
Description: as §1

Assay [6] concerns the target T6, (α4)2(β2)3 nAChR (high sensitivity) (Rattus norvegicus, UniProt P09483+P12390, P09483:L285M).
T6 construct: gene Chrna4; subunits in pGEMhe, mRNA alpha4:beta2 1:10 injected in Xenopus laevis oocytes; pentamer
Particulars: read-out: IC50 (μM (-)-menthol) ± SEM.
Description: as §2

For assay [7], the target named is T7, (α4)2(β2)3 nAChR (high sensitivity) (Rattus norvegicus, UniProt P09483+P12390, P09483:L285Q).
T7 construct: gene Chrna4; subunits in pGEMhe, mRNA alpha4:beta2 1:10 injected in Xenopus laevis oocytes; pentamer
T7 sequence (P09483 31-630 L285Q): as the sequence (P09483 31-630) above, with L255Q counted along it
T7 sequence (P12390 25-500): as the sequence (P12390 25-500) above
Particulars: read-out: IC50 (μM (-)-menthol) ± SEM.
Description: as §2

In assay [8] the target is T8, (α4)2(β2)3 nAChR (high sensitivity) (Rattus norvegicus, UniProt P09483+P12390, P09483:L285I).
T8 construct: gene Chrna4; subunits in pGEMhe, mRNA alpha4:beta2 1:10 injected in Xenopus laevis oocytes; pentamer
T8 sequence (P09483 31-630 L285I): as the sequence (P09483 31-630) above, with L255I counted along it
T8 sequence (P12390 25-500): as the sequence (P12390 25-500) above
Particulars: read-out: IC50 (μM (-)-menthol) ± SEM.
Description: as §2

The target of assay [9] is T9, (α4)2(β2)3 nAChR (high sensitivity) (Rattus norvegicus, UniProt P09483+P12390, P09483:L285W).
T9 construct: gene Chrna4; subunits in pGEMhe, mRNA alpha4:beta2 1:10 injected in Xenopus laevis oocytes; pentamer
T9 sequence (P09483 31-630 L285W): as the sequence (P09483 31-630) above, with L255W counted along it
T9 sequence (P12390 25-500): as the sequence (P12390 25-500) above
Particulars: read-out: IC50 (μM (-)-menthol) ± SEM.
Description: as §2

Assay [10] concerns the target T10, (α4)2(β2)3 nAChR (high sensitivity) (Rattus norvegicus, UniProt P09483+P12390, P09483:L285C).
T10 construct: gene Chrna4; subunits in pGEMhe, mRNA alpha4:beta2 1:10 injected in Xenopus laevis oocytes; pentamer
To be noted: read-out: IC50 (μM (-)-menthol) ± SEM.
Description: as §2

The target in assay [11] is T11, (α4)2(β2)3 nAChR (high sensitivity) (Rattus norvegicus, UniProt P09483+P12390, P09483:L285F).
T11 construct: gene Chrna4; subunits in pGEMhe, mRNA alpha4:beta2 1:10 injected in Xenopus laevis oocytes; pentamer
T11 sequence (P09483 31-630 L285F): as the sequence (P09483 31-630) above, with L255F counted along it
T11 sequence (P12390 25-500): as the sequence (P12390 25-500) above
Particulars: read-out: IC50 (μM (-)-menthol) ± SEM.
Description: as §2

For assay [12], the target named is T12, (α4)2(β2)3 nAChR (high sensitivity) (Rattus norvegicus, UniProt P09483+P12390, P09483:L285S).
T12 construct: gene Chrna4; subunits in pGEMhe, mRNA alpha4:beta2 1:10 injected in Xenopus laevis oocytes; pentamer
T12 sequence (P09483 31-630 L285S): as the sequence (P09483 31-630) above, with L255S counted along it
T12 sequence (P12390 25-500): as the sequence (P12390 25-500) above
Particulars: read-out: IC50 (μM (-)-menthol) ± SEM.
Description: as §2

In a further assay the target is T13, α5[wt](α4[wt]β2[wt])2 (Rattus norvegicus, UniProt P09483+P12390).
T13 construct: gene Chrna4; Xenopus laevis oocytes; alpha5 in the auxiliary position of alpha4beta2
T13 sequence (P09483 31-630): as the sequence (P09483 31-630) above
T13 sequence (P12390 25-500): as the sequence (P12390 25-500) above
T13 sequence (P20420 28-452 partner): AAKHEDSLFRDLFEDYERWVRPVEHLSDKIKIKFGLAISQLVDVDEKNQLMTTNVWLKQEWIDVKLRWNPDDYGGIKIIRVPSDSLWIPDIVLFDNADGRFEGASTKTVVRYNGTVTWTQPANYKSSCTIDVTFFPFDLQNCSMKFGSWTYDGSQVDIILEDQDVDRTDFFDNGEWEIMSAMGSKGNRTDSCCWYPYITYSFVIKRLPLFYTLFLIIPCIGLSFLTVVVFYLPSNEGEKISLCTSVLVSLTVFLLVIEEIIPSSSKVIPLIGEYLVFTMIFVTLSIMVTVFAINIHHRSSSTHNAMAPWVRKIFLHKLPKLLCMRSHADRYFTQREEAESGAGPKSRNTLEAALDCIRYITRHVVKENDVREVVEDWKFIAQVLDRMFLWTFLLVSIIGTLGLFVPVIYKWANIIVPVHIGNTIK
Particulars: read-out: IC50 (μM (-)-menthol) ± SEM. From the text: two-electrode voltage clamp, Xenopus oocytes on α5[wt](α4[wt]β2[wt])2

T10 sequence (P09483 31-630 L285C): as the sequence (P09483 31-630) above, with L255C counted along it
T10 sequence (P12390 25-500): as the sequence (P12390 25-500) above
T5 sequence (P09483 31-630 L285I): as the sequence (P09483 31-630) above, with L255I counted along it
T5 sequence (P12390 25-500): as the sequence (P12390 25-500) above
T6 sequence (P09483 31-630 L285M): as the sequence (P09483 31-630) above, with L255M counted along it
T6 sequence (P12390 25-500): as the sequence (P12390 25-500) above

One may read the IC50 as the concentration that inhibits the measured activity by half. As for `CC(C)[C@H]1CC[C@H](C)C[C@@H]1O` [(+)-menthol], the results for the IC50 in assay [1] and in assay [2] were 45.5 ± 2.03 µM and 48.3 ± 1.67 µM, respectively.
As for `CC(C)[C@@H]1CC[C@@H](C)C[C@H]1O` [(−)-menthol], the IC50 stood at 33.1 ± 1.83 µM in [1]; 39.2 ± 7.98 µM in [3]; 29.4 ± 4.32 µM in assay [4]; 127 ± 29.1 µM in assay [5]; 26.6 ± 1.9 µM in [6]; 165 ± 28.1 µM in assay [7]. The IC50 in [8] was 97.3 ± 38.5 µM; in [9] it was 28.8 ± 3.26 µM; in [10] it was 306 ± 173 µM; in assay [2] it was 44.9 ± 1.62 µM; in assay [11], 211 ± 75.6 µM; in [12], 514 ± 361 µM. Moreover, the IC50 on α5[wt](α4[wt]β2[wt])2 is 51 ± 9.06 µM.
